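Each compound was tested at five concentrations against cells in 96-well plates for 48 hours. The concentration for full growth arrest is given as TGI.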
Experiments:
Assay in all cases: NCI anticancer screen, dose series, 48 h
A498 renal = test system: A498 renal
TK-10 renal = test system: TK-10 renal
UACC-257 melanoma = test system: UACC-257 melanoma
UO-31 renal = test system: UO-31 renal
SN12C renal = test system: SN12C renal
ACHN renal = test system: ACHN renal
RPMI-8226 leukemia = test system: RPMI-8226 leukemia
K-562 leukemia = test system: K-562 leukemia
MCF7 breast = test system: MCF7 breast
SK-MEL-5 melanoma = test system: SK-MEL-5 melanoma
M14 melanoma = test system: M14 melanoma
OVCAR-8 ovarian = test system: OVCAR-8 ovarian
786-0 renal = test system: 786-0 renal
SR leukemia = test system: SR leukemia
MOLT-4 leukemia = test system: MOLT-4 leukemia
NCI-H522 lung = test system: NCI-H522 lung
COLO 205 colon = test system: COLO 205 colon
A549 NSCLC = test system: A549 NSCLC
T-47D breast = test system: T-47D breast
UACC-62 melanoma = test system: UACC-62 melanoma
HT29 colon = test system: HT29 colon
HCC-2998 colon = test system: HCC-2998 colon
SF-295 CNS = test system: SF-295 CNS
CCRF-CEM leukemia = test system: CCRF-CEM leukemia
RXF 393 renal = test system: RXF 393 renal
NCI/ADR-RES ovarian = test system: NCI/ADR-RES ovarian
HS 578T breast = test system: HS 578T breast
SK-MEL-2 melanoma = test system: SK-MEL-2 melanoma
KM12 colon = test system: KM12 colon
HCT-116 colon = test system: HCT-116 colon
MDA-MB-435 = test system: MDA-MB-435
EKVX NSCLC = test system: EKVX NSCLC
NCI-H23 lung = test system: NCI-H23 lung
MDA-N = test system: MDA-N
U251 CNS = test system: U251 CNS
HOP-92 NSCLC = test system: HOP-92 NSCLC
SK-OV-3 ovarian = test system: SK-OV-3 ovarian
NCI-H226 lung = test system: NCI-H226 lung
HCT-15 colon = test system: HCT-15 colon
LOX IMVI melanoma = test system: LOX IMVI melanoma
OVCAR-3 ovarian = test system: OVCAR-3 ovarian
PC-3 prostate = test system: PC-3 prostate
MALME-3M melanoma = test system: MALME-3M melanoma
HOP-62 NSCLC = test system: HOP-62 NSCLC
SF-539 CNS = test system: SF-539 CNS
OVCAR-5 ovarian = test system: OVCAR-5 ovarian
MDA-MB-231 breast = test system: MDA-MB-231 breast
IGROV1 ovarian = test system: IGROV1 ovarian
OVCAR-4 ovarian = test system: OVCAR-4 ovarian
HL-60(TB) leukemia = test system: HL-60(TB) leukemia
DU-145 prostate = test system: DU-145 prostate
CAKI-1 renal = test system: CAKI-1 renal
SNB-75 CNS = test system: SNB-75 CNS
NCI-H460 lung = test system: NCI-H460 lung
SW-620 colon = test system: SW-620 colon
SK-MEL-28 melanoma = test system: SK-MEL-28 melanoma
SF-268 CNS = test system: SF-268 CNS
SNB-19 CNS = test system: SNB-19 CNS

COC(=O)/C=C/c1ccc2c(c1)CC1(Cc3ccccc3C1)C2
TGI (A498 renal): > 100 µM
TGI (TK-10 renal): > 100 µM
TGI (UACC-257 melanoma): > 100 µM
TGI (UO-31 renal): > 100 µM
TGI (SN12C renal): > 100 µM
TGI (ACHN renal): > 100 µM
TGI (RPMI-8226 leukemia): > 100 µM
TGI (K-562 leukemia): > 100 µM
TGI (MCF7 breast): > 100 µM
TGI (SK-MEL-5 melanoma): > 100 µM
TGI (M14 melanoma): > 100 µM
TGI (OVCAR-8 ovarian): > 100 µM
TGI (786-0 renal): > 100 µM
TGI (SR leukemia): 58.1 µM
TGI (MOLT-4 leukemia): > 100 µM
TGI (NCI-H522 lung): > 100 µM
TGI (COLO 205 colon): > 100 µM
TGI (A549 NSCLC): > 100 µM
TGI (T-47D breast): > 100 µM
TGI (UACC-62 melanoma): > 100 µM
TGI (HT29 colon): > 100 µM
TGI (HCC-2998 colon): > 100 µM
TGI (SF-295 CNS): > 100 µM
TGI (CCRF-CEM leukemia): 57.3 µM
TGI (RXF 393 renal): > 100 µM
TGI (NCI/ADR-RES ovarian): > 100 µM
TGI (HS 578T breast): 80.4 µM
TGI (SK-MEL-2 melanoma): > 100 µM
TGI (KM12 colon): > 100 µM
TGI (HCT-116 colon): 1.34 µM
TGI (MDA-MB-435): > 100 µM
TGI (EKVX NSCLC): > 100 µM
TGI (NCI-H23 lung): > 100 µM
TGI (MDA-N): > 100 µM
TGI (U251 CNS): > 100 µM
TGI (HOP-92 NSCLC): > 100 µM
TGI (SK-OV-3 ovarian): > 100 µM
TGI (NCI-H226 lung): > 100 µM
TGI (HCT-15 colon): > 100 µM
TGI (LOX IMVI melanoma): > 100 µM
TGI (OVCAR-3 ovarian): > 100 µM
TGI (PC-3 prostate): > 100 µM
TGI (MALME-3M melanoma): > 100 µM
TGI (HOP-62 NSCLC): > 100 µM
TGI (SF-539 CNS): > 100 µM
TGI (OVCAR-5 ovarian): > 100 µM
TGI (MDA-MB-231 breast): > 100 µM
TGI (IGROV1 ovarian): > 100 µM
TGI (OVCAR-4 ovarian): > 100 µM
TGI (HL-60(TB) leukemia): 67.3 µM

COC(=O)C(NC(=O)CSc1nnc(COc2ccc(Cl)cc2)n1-c1ccccc1)C(C)C (stereo unspecified)
TGI (A498 renal): > 100 µM
TGI (TK-10 renal): 36.2 µM
TGI (UACC-257 melanoma): 34 µM
TGI (UO-31 renal): > 100 µM
TGI (SN12C renal): 37.1 µM
TGI (ACHN renal): > 100 µM
TGI (DU-145 prostate): > 100 µM
TGI (K-562 leukemia): > 100 µM
TGI (MCF7 breast): > 100 µM
TGI (CAKI-1 renal): 25.1 µM
TGI (SNB-75 CNS): 38.9 µM
TGI (M14 melanoma): 58 µM
TGI (NCI-H460 lung): 99.3 µM
TGI (OVCAR-8 ovarian): 64.7 µM
TGI (786-0 renal): 38.8 µM
TGI (SR leukemia): > 100 µM
TGI (MOLT-4 leukemia): > 100 µM
TGI (SW-620 colon): > 100 µM
TGI (NCI-H522 lung): 24.7 µM
TGI (COLO 205 colon): 48.6 µM
TGI (A549 NSCLC): > 100 µM
TGI (T-47D breast): 70.6 µM
TGI (UACC-62 melanoma): 36.1 µM
TGI (HT29 colon): 44.5 µM
TGI (HCC-2998 colon): 38.7 µM
TGI (SF-295 CNS): 42.2 µM
TGI (CCRF-CEM leukemia): > 100 µM
TGI (RXF 393 renal): 57.5 µM
TGI (NCI/ADR-RES ovarian): 82.1 µM
TGI (SK-MEL-2 melanoma): 35.1 µM
TGI (KM12 colon): 38.5 µM
TGI (HCT-116 colon): 31.4 µM
TGI (MDA-MB-435): 43 µM
TGI (SK-MEL-28 melanoma): 51.6 µM
TGI (EKVX NSCLC): 73.1 µM
TGI (NCI-H23 lung): 69.3 µM
TGI (MDA-N): 32.1 µM
TGI (U251 CNS): > 100 µM
TGI (HOP-92 NSCLC): 77.2 µM
TGI (SK-OV-3 ovarian): > 100 µM
TGI (NCI-H226 lung): 33 µM
TGI (HCT-15 colon): > 100 µM
TGI (LOX IMVI melanoma): 88.1 µM
TGI (OVCAR-3 ovarian): 31.5 µM
TGI (PC-3 prostate): 50.9 µM
TGI (SF-268 CNS): 44.9 µM
TGI (MALME-3M melanoma): 31.9 µM
TGI (HOP-62 NSCLC): 35.2 µM
TGI (SNB-19 CNS): 73 µM
TGI (SF-539 CNS): > 100 µM
TGI (OVCAR-5 ovarian): 75.9 µM
TGI (MDA-MB-231 breast): 35.1 µM
TGI (IGROV1 ovarian): 36.8 µM
TGI (OVCAR-4 ovarian): 74.1 µM
TGI (HL-60(TB) leukemia): > 100 µM

CC1(C)[C@@H]2CC[C@@]1(C)[C@H](O)[C@@H]2SCc1ccccc1
TGI (A498 renal): 0.0578 µM
TGI (TK-10 renal): 57.8 µM
TGI (UACC-257 melanoma): 32.5 µM
TGI (UO-31 renal): 35.4 µM
TGI (SN12C renal): 34.5 µM
TGI (ACHN renal): 24 µM
TGI (RPMI-8226 leukemia): > 100 µM
TGI (DU-145 prostate): 40.6 µM
TGI (K-562 leukemia): > 100 µM
TGI (CAKI-1 renal): 43.1 µM
TGI (SNB-75 CNS): 49.1 µM
TGI (SK-MEL-5 melanoma): 29.1 µM
TGI (M14 melanoma): 30.1 µM
TGI (NCI-H460 lung): 39.9 µM
TGI (OVCAR-8 ovarian): 37.2 µM
TGI (786-0 renal): 32.9 µM
TGI (SR leukemia): > 100 µM
TGI (MOLT-4 leukemia): 49.7 µM
TGI (SW-620 colon): 74.9 µM
TGI (NCI-H522 lung): 29.3 µM
TGI (COLO 205 colon): 34.1 µM
TGI (A549 NSCLC): 48.6 µM
TGI (T-47D breast): 62.8 µM
TGI (UACC-62 melanoma): 22.2 µM
TGI (HT29 colon): 29.6 µM
TGI (HCC-2998 colon): 36.6 µM
TGI (SF-295 CNS): 33 µM
TGI (CCRF-CEM leukemia): 96.6 µM
TGI (RXF 393 renal): 33 µM
TGI (NCI/ADR-RES ovarian): 33 µM
TGI (HS 578T breast): 30.7 µM
TGI (SK-MEL-2 melanoma): 33.7 µM
TGI (KM12 colon): 36.4 µM
TGI (HCT-116 colon): 44.4 µM
TGI (MDA-MB-435): 33.2 µM
TGI (SK-MEL-28 melanoma): 38.4 µM
TGI (EKVX NSCLC): 34.2 µM
TGI (NCI-H23 lung): 29.1 µM
TGI (MDA-N): 43.4 µM
TGI (U251 CNS): 31.7 µM
TGI (HOP-92 NSCLC): 28.7 µM
TGI (SK-OV-3 ovarian): 44.9 µM
TGI (NCI-H226 lung): 39.4 µM
TGI (HCT-15 colon): 29.7 µM
TGI (LOX IMVI melanoma): 36.6 µM
TGI (OVCAR-3 ovarian): 31.8 µM
TGI (PC-3 prostate): 50.4 µM
TGI (SF-268 CNS): 32.6 µM
TGI (HOP-62 NSCLC): 33 µM
TGI (SNB-19 CNS): 31.7 µM
TGI (SF-539 CNS): 34.6 µM
TGI (OVCAR-5 ovarian): 33.1 µM
TGI (MDA-MB-231 breast): 33 µM
TGI (IGROV1 ovarian): 37.4 µM
TGI (OVCAR-4 ovarian): 26.6 µM
TGI (HL-60(TB) leukemia): 54.3 µM

CNc1ccc(S(=O)Nc2ccccc2)cc1 (stereo unspecified)
TGI (TK-10 renal): > 100 µM
TGI (UACC-257 melanoma): > 100 µM
TGI (UO-31 renal): > 100 µM
TGI (SN12C renal): > 100 µM
TGI (ACHN renal): > 100 µM
TGI (RPMI-8226 leukemia): > 100 µM
TGI (DU-145 prostate): > 100 µM
TGI (K-562 leukemia): > 100 µM
TGI (MCF7 breast): > 100 µM
TGI (SK-MEL-5 melanoma): 91.1 µM
TGI (NCI-H460 lung): > 100 µM
TGI (OVCAR-8 ovarian): > 100 µM
TGI (786-0 renal): > 100 µM
TGI (SR leukemia): > 100 µM
TGI (MOLT-4 leukemia): > 100 µM
TGI (SW-620 colon): > 100 µM
TGI (NCI-H522 lung): 96.7 µM
TGI (COLO 205 colon): 83.5 µM
TGI (A549 NSCLC): > 100 µM
TGI (T-47D breast): 49.5 µM
TGI (UACC-62 melanoma): 81.3 µM
TGI (HT29 colon): > 100 µM
TGI (HCC-2998 colon): > 100 µM
TGI (SF-295 CNS): > 100 µM
TGI (CCRF-CEM leukemia): > 100 µM
TGI (NCI/ADR-RES ovarian): > 100 µM
TGI (HS 578T breast): > 100 µM
TGI (SK-MEL-2 melanoma): > 100 µM
TGI (KM12 colon): > 100 µM
TGI (HCT-116 colon): > 100 µM
TGI (MDA-MB-435): > 100 µM
TGI (SK-MEL-28 melanoma): > 100 µM
TGI (EKVX NSCLC): > 100 µM
TGI (NCI-H23 lung): > 100 µM
TGI (MDA-N): > 100 µM
TGI (U251 CNS): > 100 µM
TGI (NCI-H226 lung): > 100 µM
TGI (HCT-15 colon): > 100 µM
TGI (LOX IMVI melanoma): > 100 µM
TGI (OVCAR-3 ovarian): > 100 µM
TGI (SF-268 CNS): > 100 µM
TGI (MALME-3M melanoma): > 100 µM
TGI (HOP-62 NSCLC): > 100 µM
TGI (SNB-19 CNS): > 100 µM
TGI (SF-539 CNS): > 100 µM
TGI (OVCAR-5 ovarian): > 100 µM
TGI (MDA-MB-231 breast): > 100 µM
TGI (IGROV1 ovarian): > 100 µM
TGI (OVCAR-4 ovarian): > 100 µM
TGI (HL-60(TB) leukemia): > 100 µM

Reference: PubChem BioAssay (NCI)
